Columns and labels:
[1] = biological target: EGFR (Homo sapiens (Human), UniProt P00533); assay: EGFR kinase inhibition, luciferase-coupled chemiluminescent assay (LCCA); details: read-out: EGFR IC50
[2] = biological target: EphA2 (Homo sapiens (Human), UniProt P29317); assay: EphA2 kinase inhibition, luciferase-coupled chemiluminescent assay (LCCA); details: read-out: EphA2 IC50
Experimental: Kinase activity and compound inhibition are investigated using one or more of the three assay formats described below. The ATP concentrations are selected near its Michaelis-Menten constant (KM) for each individual kinase. Dose-response experiments are performed at ten different inhibitor concentrations in a 384-well plate format. […] Typically H is close to unity.
In the LCCA assays, kinase activity is measured by the ATP consumption that is accurately measured by luciferase-coupled chemiluminescence. Greiner 384-well white clear bottom medium binding plates are used for LCCA. Briefly the kinase reaction is initiated by mixing compounds, ATP and kinases in a 20 μL volume. At the end of the kinase reaction, a 20 μL luciferase-luciferin mix is added and the chemiluminescent signal is read on a Wallac Victor^2 reader.

[3] = biological target: EphB4 (Homo sapiens (Human), UniProt P54760); assay: EphB4 kinase inhibition, 33P phosphoryl transfer assay (radiometric); assay type: biochemical
Experimental: Phosphorylated substrate products are quantified by scintillation spectrometry.
Kinase activity and compound inhibition are investigated using one or more of the three assay formats described below. The ATP concentrations are selected near its Michaelis-Menten constant (KM) for each individual kinase. Dose-response experiments are performed at ten different inhibitor concentrations in a 384-well plate format. […] These parameters are obtained by nonlinear regression algorithm built into ActivityBase software (available from ID Business Solutions Ltd., of Guildford, Surrey, UK). ^33P Phosphoryl Transfer Assay (Radiometric)
Greiner 384-well white clear bottom high binding plates (available from Greiner Bio-One, Inc., of Longwood, Fla.) are coated with 2 μg/well of protein or peptide substrate in a 50 μL volume overnight at ambient temperature. […] The coating solution is aspirated and the plates are washed once with 50 μL of assay buffer and padded dry. Subsequently compounds and enzymes are mixed with γ ^33P-ATP (3.3 μCi/nmol) in a total volume of 20 uL in suitable assay buffers (see Table 2). For example the final EphB4 reaction solution contains 20 mM TrisHCl, pH 7.5, 10 mM MgCl2, 0.01% Triton X-100, 0.1 mM NaVO3, 5 nM EphB4 enzyme and 5 μM ATP. […] The plates are subsequently washed 6-12 times with PBST or TBS buffer.

Sequence of EphA2 (P29317 598-890): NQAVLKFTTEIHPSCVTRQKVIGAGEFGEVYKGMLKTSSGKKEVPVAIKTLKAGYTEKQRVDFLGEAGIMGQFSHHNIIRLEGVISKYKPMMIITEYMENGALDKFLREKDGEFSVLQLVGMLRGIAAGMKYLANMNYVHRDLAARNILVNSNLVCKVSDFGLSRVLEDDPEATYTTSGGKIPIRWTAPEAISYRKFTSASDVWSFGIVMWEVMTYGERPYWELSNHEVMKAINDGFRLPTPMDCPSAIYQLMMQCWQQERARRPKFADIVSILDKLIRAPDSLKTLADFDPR
Sequence of EphB4 (P54760 605-890): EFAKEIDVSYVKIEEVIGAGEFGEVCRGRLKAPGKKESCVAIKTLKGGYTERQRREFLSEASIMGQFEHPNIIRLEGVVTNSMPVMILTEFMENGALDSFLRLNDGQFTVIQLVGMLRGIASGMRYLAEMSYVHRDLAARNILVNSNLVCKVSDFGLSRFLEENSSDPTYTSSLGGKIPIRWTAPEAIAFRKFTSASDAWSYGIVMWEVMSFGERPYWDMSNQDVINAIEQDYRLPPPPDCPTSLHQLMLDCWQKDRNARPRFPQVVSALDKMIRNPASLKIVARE
Sequence of EGFR (P00533 672-1210): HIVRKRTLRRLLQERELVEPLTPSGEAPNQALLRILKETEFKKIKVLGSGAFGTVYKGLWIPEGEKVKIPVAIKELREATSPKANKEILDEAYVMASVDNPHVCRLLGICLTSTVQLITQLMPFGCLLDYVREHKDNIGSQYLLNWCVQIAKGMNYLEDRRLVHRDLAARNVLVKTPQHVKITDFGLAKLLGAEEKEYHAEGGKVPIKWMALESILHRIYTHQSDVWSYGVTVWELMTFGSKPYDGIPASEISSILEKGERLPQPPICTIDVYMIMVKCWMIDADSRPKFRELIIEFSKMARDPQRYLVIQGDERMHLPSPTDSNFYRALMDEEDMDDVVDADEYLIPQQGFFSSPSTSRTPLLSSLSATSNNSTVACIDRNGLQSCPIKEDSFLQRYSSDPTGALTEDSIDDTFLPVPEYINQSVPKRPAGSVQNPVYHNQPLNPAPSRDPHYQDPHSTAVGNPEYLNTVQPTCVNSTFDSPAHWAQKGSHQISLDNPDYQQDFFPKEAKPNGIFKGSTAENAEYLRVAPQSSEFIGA

| Structure (SMILES) | IC50 [1] [µM] | IC50 [2] [µM] | IC50 [3] [µM] |
| --- | --- | --- | --- |
| COc1cc2c(Nc3ccc(Cl)c(Cl)c3)ncnc2cc1OCc1csc(C2CCCCN2)n1 (centres unmarked) [Example 249, N-(3,4-dichlorophenyl)-6-(methyloxy)-7-{[(2-piperidin-2-yl-1,3-thiazol-4-yl)methyl]oxy}quinazolin-4-amine] | < 0.05 | 0.05 to 1 | 0.05 to 1 |
| COc1cc2c(Nc3ccc(Cl)c(Cl)c3)ncnc2cc1OCc1csc(C2CCCNC2)n1 (centres unmarked) [Example 251, N-(3,4-dichlorophenyl)-6-(methyloxy)-7-{[(2-piperidin-3-yl-1,3-thiazol-4-yl)methyl]oxy}quinazolin-4-amine] | < 0.05 | 1 to 20 | 0.05 to 1 |
| COc1cc2c(Nc3ccc(Cl)c(Cl)c3)ncnc2cc1OCc1noc(C2CCCN2)n1 (centres unmarked) [Example 263, N-(3,4-dichlorophenyl)-6-(methyloxy)-7-{[(5-pyrrolidin-2-yl-1,2,4-oxadiazol-3-yl)methyl]oxy}quinazolin-4-amine] | < 0.05 | 1 to 20 | 0.05 to 1 |
| COc1cc2c(Nc3ccc(Cl)c(Cl)c3)ncnc2cc1OC1CCCC1 [Example 184, 7-(cyclopentyloxy)-N-(3,4-dichlorophenyl)-6-(methyloxy)quinazolin-4-amine] | < 0.05 | 1 to 20 | 0.05 to 1 |
| COc1cc2c(Nc3ccc(Cl)c(Cl)c3)ncnc2cc1OCc1nnc(-c2ccc(C)cc2)o1 [Example 228, N-(3,4-dichlorophenyl)-6-(methyloxy)-7-({[5-(4-methylphenyl)-1,3,4-oxadiazol-2-yl]methyl}oxy)quinazolin-4-amine] | < 0.05 | 0.05 to 1 | < 0.05 |
| COc1cc2c(Nc3ccc(Cl)c(Cl)c3)ncnc2cc1OCc1nccn1Cc1ccccc1 [Example 229, N-(3,4-dichlorophenyl)-6-(methyloxy)-7-({[1-(phenylmethyl)-lH-imidazol-2-yl]methyl}oxy)quinazolin-4-amine] | < 0.05 | 1 to 20 | 0.05 to 1 |
| COc1cc2c(Nc3ccc(Cl)c(Cl)c3)ncnc2cc1OCC1CN(CC2CC2)CCCO1 (centres unmarked) [Example 259, 7-({[4-(cyclopropylmethyl)-1,4-oxazepan-2-yl]methyl}oxy)-N-(3,4-dichlorophenyl)-6-(methyloxy)quinazolin-4-amine] | < 0.05 | – | 0.05 to 1 |
| COc1cc2c(Nc3ccc(Cl)c(Cl)c3)ncnc2cc1OCc1nc(CN2CCOCC2)no1 [Example 143, N-(3,4-dichlorophenyl)-6-(methyloxy)-7-({[3-(morpholin-4-ylmethyl)-1,2,4-oxadiazol-5-yl]methyl}oxy)quinazolin-4-amine] | < 0.05 | – | 0.05 to 1 |
| COc1cc2c(Nc3ccc(Cl)c(Cl)c3)ncnc2cc1OCc1noc(C2CCCNC2)n1 (centres unmarked) [Example 153, N-(3,4-dichlorophenyl)-6-(methyloxy)-7-{[(5-piperidin-3-yl-1,2,4-oxadiazol-3-yl)methyl]oxy}quinazolin-4-amine] | < 0.05 | – | 0.05 to 1 |
| COc1cc2c(Nc3cccc(F)c3F)ncnc2cc1O[C@@H]1CO[C@@H]2[C@H]1OC[C@H]2F [Example 92, 1,4:3,6-dianhydro-2-deoxy-5-O-[4-[(2,3-difluorophenyl)amino]-6-(methyloxy)quinazolin-7-yl]-2-fluoro-D-iditol] | < 0.05 | – | < 0.05 |
| COc1cc2c(Nc3ccc(Cl)c(Cl)c3)ncnc2cc1OCc1nc(CN(C)C)no1 [Example 139, N-(3,4-dichlorophenyl)-7-[({3-[(dimethylamino)methyl]-1,2,4-oxadiazol-5-yl}methyl)oxy]-6-(methyloxy)quinazolin-4-amine] | < 0.05 | – | 0.05 to 1 |
| COc1cc2c(Nc3cccc(Br)c3)ncnc2cc1O[C@@H]1CO[C@@H]2[C@H]1OC[C@H]2F [Example 129, 1,4:3,6-dianhydro-5-O-[4-[(3-bromophenyl)amino]-6-(methyloxy)quinazolin-7-yl]-2-deoxy-2-fluoro-D-iditol] | < 0.05 | – | < 0.05 |
| COc1cc2c(Nc3ccc(Cl)c(Cl)c3)ncnc2cc1OCc1noc(C2CCNCC2)n1 [Example 141, N-(3,4-dichlorophenyl)-6-(methyloxy)-7-{[(5-piperidin-4-yl-1,2,4-oxadiazol-3-yl)methyl]oxy}quinazolin-4-amine] | < 0.05 | – | 0.05 to 1 |
| COc1cc2c(Nc3ccc(Cl)c(Cl)c3)ncnc2cc1OCc1csc(-c2ccc(C(F)(F)F)cc2)n1 [Example 222, N-(3,4-dichlorophenyl)-6-(methyloxy)-7-[({2-[4-(trifluoromethyl)phenyl]-1,3-thiazol-4-yl}methyl)oxy]quinazolin-4-amine] | < 0.05 | – | 0.05 to 1 |

Further lines, results first:

| IC50 [1] [µM] | IC50 [2] [µM] | IC50 [3] [µM] | Structure (SMILES) |
| --- | --- | --- | --- |
| < 0.05 | 0.05 to 1 | < 0.05 | COc1cc2c(Nc3ccc(Cl)c(Cl)c3)ncnc2cc1OCc1csc(C2CCNCC2)n1 [Example 213, N-(3,4-dichlorophenyl)-6-(methyloxy)-7-{[(2-piperidin-4-yl-1,3-thiazol-4-yl)methyl]oxy}quinazolin-4-amine] |
| < 0.05 | 1 to 20 | 0.05 to 1 | CCO[C@H]1CO[C@H]2[C@@H]1OC[C@@H]2Oc1cc2ncnc(Nc3ccc(Br)c(Cl)c3)c2cc1OC [Example 74, 1,4:3,6-dianhydro-2-O-[4-[(4-bromo-3-chlorophenyl)amino]-6-(methyloxy)quinazolin-7-yl]-5-O-ethyl-L-iditol] |
| < 0.05 | 1 to 20 | 0.05 to 1 | COc1cc2c(Nc3ccc(Cl)c(Cl)c3)ncnc2cc1OCC1CN(CCCc2ccccc2)CCO1 (centres unmarked) [Example 271, N-(3,4-dichlorophenyl)-6-(methyloxy)-7-({[4-(3-phenylpropyl)morpholin-2-yl]methyl}oxy)quinazolin-4-amine] |
| < 0.05 | 1 to 20 | 0.05 to 1 | COc1cc2c(Nc3ccc(Cl)c(Cl)c3)ncnc2cc1OCc1nc([C@@H]2CCCN2C)no1 [Example 265, N-(3,4-dichlorophenyl)-6-(methyloxy)-7-[({3-[(2S)-1-methylpyrrolidin-2-yl]-1,2,4-oxadiazol-5-yl}methyl)oxy]quinazolin-4-amine] |
| < 0.05 | 0.05 to 1 | 0.05 to 1 | COc1cc2c(Nc3ccc(Cl)c(Cl)c3)ncnc2cc1OCC(=O)N1CCOCC1 [Example 195, N-(3,4-dichlorophenyl)-6-(methyloxy)-7-[(2-morpholin-4-yl-2-oxoethyl)oxy]quinazolin-4-amine] |
| < 0.05 | 0.05 to 1 | < 0.05 | COc1cc2c(Nc3cccc(Br)c3C)ncnc2cc1O[C@H]1CO[C@H]2[C@@H]1OC[C@@H]2OC [Example 75, 1,4:3,6-dianhydro-2-O-[4-[(3-bromo-2-methylphenyl)amino]-6-(methyloxy)quinazolin-7-yl]-5-O-methyl-L-iditol] |
| < 0.05 | – | < 0.05 | COc1cc2c(Nc3ccc(F)c(F)c3F)ncnc2cc1O[C@@H]1CO[C@@H]2[C@H]1OC[C@H]2F [Example 84, 1,4:3,6-dianhydro-2-deoxy-2-fluoro-5-O-{6-(methyloxy)-4-[(2,3,4-trifluorophenyl)amino]quinazolin-7-yl}-D-iditol] |
| < 0.05 | – | 0.05 to 1 | CCCN1CCCOC(COc2cc3ncnc(Nc4ccc(Cl)c(Cl)c4)c3cc2OC)C1 (centres unmarked) [Example 258, N-(3,4-dichlorophenyl)-6-(methyloxy)-7-{[(4-propyl-1,4-oxazepan-2-yl)methyl]oxy}quinazolin-4-amine] |
| < 0.05 | – | < 0.05 | COc1cc2c(Nc3ccc(Cl)c(Cl)c3)ncnc2cc1OCc1ccncc1 [Example 172, N-(3,4-dichlorophenyl)-6-(methyloxy)-7-[(pyridin-4-ylmethyl)oxy]quinazolin-4-amine] |
| < 0.05 | – | < 0.05 | COc1cc2c(Nc3ccc(Cl)cc3Cl)ncnc2cc1O[C@@H]1CO[C@@H]2[C@H]1OC[C@H]2F [Example 117, 1,4:3,6-dianhydro-2-deoxy-5-O-[4-[(2,4-dichlorophenyl)amino]-6-(methyloxy)quinazolin-7-yl]-2-fluoro-D-iditol] |
| – | < 0.05 | – | COc1cc2c(Nc3ccc(Cl)c(Cl)c3)ncnc2cc1OCc1nc(N2CCNCC2)no1 [Example 217, N-(3,4-dichlorophenyl)-6-(methyloxy)-7-{[(3-piperazin-1-yl-1,2,4-oxadiazol-5-yl)methyl]oxy}quinazolin-4-amine] |
| < 0.05 | – | < 0.05 | COc1cc2c(Nc3cccc(Cl)c3)ncnc2cc1O[C@@H]1CO[C@@H]2[C@H]1OC[C@H]2F [Example 114, 1,4:3,6-dianhydro-5-O-[4-[(3-chlorophenyl)amino]-6-(methyloxy)quinazolin-7-yl]-2-deoxy-2-fluoro-D-iditol] |
| < 0.05 | 1 to 20 | – | COc1cc2c(Nc3ccc(Cl)c(Cl)c3)ncnc2cc1OCc1cccnc1 [Example 179, N-(3,4-dichlorophenyl)-6-(methyloxy)-7-[(pyridin-3-ylmethyl)oxy]quinazolin-4-amine] |
